Measurements taken from PubChem BioAssay AID2060618 (Molecular Pharmacology Branch, DTP, NCI, 2025).

Tested on: 454973-116-R2-J3-PDC spheroids, percent test/control viability
Assay: Anticancer human tumor 454973-116-R2-J3-PDC patient-derived pancreatic carcinoma cell line growth inhibition [CLK]
Conditions: spheroids with HUVEC and MSC; for IC50: curve of first compound; for viability, T/C: stronger effect = lower value
Procedure, shortened: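 Multi-cell-type spheroids combined patient-derived tumor cells with HUVEC endothelial cells and human mesenchymal stem cells. Paired agents were dosed in half-log steps down from about clinical Cmax, or from 10 microM where Cmax was unknown.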

[1] = second compound 0.0316 µM, first compound 0.0316 µM
[2] = second compound 0.0316 µM, first compound 0.1 µM
[3] = second compound 0.0316 µM, first compound 0.316 µM
[4] = second compound 0.0316 µM, first compound 1 µM
[5] = second compound 0.0316 µM, first compound 3.16 µM
[6] = second compound 0.0316 µM, first compound 10 µM
[7] = second compound 0.1 µM, first compound 0.0316 µM
[8] = second compound 0.1 µM, first compound 0.1 µM
[9] = second compound 0.1 µM, first compound 0.316 µM
[10] = second compound 0.1 µM, first compound 1 µM
[11] = second compound 0.1 µM, first compound 3.16 µM
[12] = second compound 0.1 µM, first compound 10 µM
[13] = second compound 0.316 µM, first compound 0.0316 µM
[14] = second compound 0.316 µM, first compound 0.1 µM
[15] = second compound 0.316 µM, first compound 0.316 µM
[16] = second compound 0.316 µM, first compound 1 µM
[17] = second compound 0.316 µM, first compound 3.16 µM
[18] = second compound 0.316 µM, first compound 10 µM
[19] = second compound 1 µM, first compound 0.0316 µM
[20] = second compound 1 µM, first compound 0.1 µM
[21] = second compound 1 µM, first compound 0.316 µM
[22] = second compound 1 µM, first compound 1 µM
[23] = second compound 1 µM, first compound 3.16 µM
[24] = second compound 1 µM, first compound 10 µM
[25] = second compound 3.16 µM, first compound 0.0316 µM
[26] = second compound 3.16 µM, first compound 0.1 µM
[27] = second compound 3.16 µM, first compound 0.316 µM
[28] = second compound 3.16 µM, first compound 1 µM
[29] = second compound 3.16 µM, first compound 3.16 µM
[30] = second compound 3.16 µM, first compound 10 µM
[31] = second compound 10 µM, first compound 0.0316 µM
[32] = second compound 10 µM, first compound 0.1 µM
[33] = second compound 10 µM, first compound 0.316 µM
[34] = second compound 10 µM, first compound 1 µM
[35] = second compound 10 µM, first compound 3.16 µM
[36] = second compound 10 µM, first compound 10 µM
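Further: spheroids exposed to compounds for 7 days before readout.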

With `CC(C)CC(NC(=O)C(Cc1ccccc1)NC(=O)c1cnccn1)B(O)O` (stereo unspecified) + CNC(=O)c1ccc(Nc2nc(OC3CCCC3)c3c(-c4ccc5nc(C)oc5c4)c[nH]c3n2)c(OC)c1 the IC50 (second compound 0.0316 µM) was 0.00255 µM, the IC50 (second compound 0.1 µM) was 0.0029 µM and the IC50 (second compound 0.316 µM) was 0.00108 µM. For the same compound, the IC50 (second compound 1 µM) was < 0.000949 µM, the IC50 (second compound 3.16 µM) was < 0.000949 µM and the IC50 (second compound 10 µM) was < 0.000949 µM. The viability, T/C (second compound 0.0316 µM, first compound 0.000949 µM) was 104%, the viability, T/C (second compound 0.0316 µM, first compound 0.003 µM) was 41% and the viability, T/C (second compound 0.0316 µM, first compound 0.00949 µM) was 3.37%. For the same compound, the viability, T/C (second compound 0.0316 µM, first compound 0.03 µM) was 3.93%, the viability, T/C (second compound 0.0316 µM, first compound 0.0949 µM) was 1% and the viability, T/C (second compound 0.0316 µM, first compound 0.3 µM) was 1.85%. It also gave a viability, T/C (second compound 0.1 µM, first compound 0.000949 µM) of 108%, a viability, T/C (second compound 0.1 µM, first compound 0.003 µM) of 48.3% and a viability, T/C (second compound 0.1 µM, first compound 0.00949 µM) of 0.31%. For the same compound, the viability, T/C (second compound 0.1 µM, first compound 0.03 µM) was 2.58%, the viability, T/C (second compound 0.1 µM, first compound 0.0949 µM) was 2.61% and the viability, T/C (second compound 0.1 µM, first compound 0.3 µM) was 0.65%. It also gave a viability, T/C (second compound 0.316 µM, first compound 0.000949 µM) of 54.1%, a viability, T/C (second compound 0.316 µM, first compound 0.003 µM) of 18.6% and a viability, T/C (second compound 0.316 µM, first compound 0.00949 µM) of 1.42%. The viability, T/C (second compound 0.316 µM, first compound 0.03 µM) was 3.86%, the viability, T/C (second compound 0.316 µM, first compound 0.0949 µM) was 1.32% and the viability, T/C (second compound 0.316 µM, first compound 0.3 µM) was 0.81%. The viability, T/C (second compound 1 µM, first compound 0.000949 µM) was 41.6%, the viability, T/C (second compound 1 µM, first compound 0.003 µM) was 7.07% and the viability, T/C (second compound 1 µM, first compound 0.00949 µM) was 2.43%. It also gave a viability, T/C (second compound 1 µM, first compound 0.03 µM) of 2.96%, a viability, T/C (second compound 1 µM, first compound 0.0949 µM) of 3.35% and a viability, T/C (second compound 1 µM, first compound 0.3 µM) of 1.14%. The viability, T/C (second compound 3.16 µM, first compound 0.000949 µM) was 30.4%, the viability, T/C (second compound 3.16 µM, first compound 0.003 µM) was 3.95% and the viability, T/C (second compound 3.16 µM, first compound 0.00949 µM) was 1.54%. For the same compound, the viability, T/C (second compound 3.16 µM, first compound 0.03 µM) was 1.66%, the viability, T/C (second compound 3.16 µM, first compound 0.0949 µM) was 2.98% and the viability, T/C (second compound 3.16 µM, first compound 0.3 µM) was 0.23%. It also gave a viability, T/C (second compound 10 µM, first compound 0.000949 µM) of 28.3%, a viability, T/C (second compound 10 µM, first compound 0.003 µM) of 2.63% and a viability, T/C (second compound 10 µM, first compound 0.00949 µM) of 1.46%. For the same compound, the viability, T/C (second compound 10 µM, first compound 0.03 µM) was 3.63%, the viability, T/C (second compound 10 µM, first compound 0.0949 µM) was 1.96% and the viability, T/C (second compound 10 µM, first compound 0.3 µM) was 0.7%.

With `CC1COCCN1c1cc(C2(S(C)(=N)=O)CC2)nc(-c2ccnc3[nH]ccc23)n1` (stereo unspecified) + CNC(=O)c1ccc(Nc2nc(OC3CCCC3)c3c(-c4ccc5nc(C)oc5c4)c[nH]c3n2)c(OC)c1 the IC50 (second compound 0.0316 µM) was 6.28 µM, the IC50 (second compound 0.1 µM) was 7.33 µM and the IC50 (second compound 0.316 µM) was < 0.0316 µM. The IC50 (second compound 1 µM) was < 0.0316 µM, the IC50 (second compound 3.16 µM) was < 0.0316 µM and the IC50 (second compound 10 µM) was < 0.0316 µM. It also gave a viability, T/C [1] of 96.7%, a viability, T/C [2] of 103% and a viability, T/C [3] of 97.8%. For the same compound, the viability, T/C [4] was 101%, the viability, T/C [5] was 73.3% and the viability, T/C [6] was 34.2%. It also gave a viability, T/C [7] of 103%, a viability, T/C [8] of 97.5% and a viability, T/C [9] of 94.7%. The viability, T/C [10] was 93.6%, the viability, T/C [11] was 84.4% and the viability, T/C [12] was 37.4%. The viability, T/C [13] was 37%, the viability, T/C [14] was 43.9% and the viability, T/C [15] was 45.1%. It also gave a viability, T/C [16] of 40.1%, a viability, T/C [17] of 48.3% and a viability, T/C [18] of 29.5%. It also gave a viability, T/C [19] of 27.9%, a viability, T/C [20] of 30.9% and a viability, T/C [21] of 30.5%. For the same compound, the viability, T/C [22] was 27.3%, the viability, T/C [23] was 25.3% and the viability, T/C [24] was 15.8%. The viability, T/C [25] was 30.4%, the viability, T/C [26] was 24.3% and the viability, T/C [27] was 28.9%. For the same compound, the viability, T/C [28] was 28.1%, the viability, T/C [29] was 19.3% and the viability, T/C [30] was 12.3%. It also gave a viability, T/C [31] of 29.8%, a viability, T/C [32] of 27.3% and a viability, T/C [33] of 27.5%. For the same compound, the viability, T/C [34] was 25.5%, the viability, T/C [35] was 17.4% and the viability, T/C [36] was 10.3%.

For `O=C(c1cc(Cc2n[nH]c(=O)c3ccccc23)ccc1F)N1CCN(C(=O)C2CC2)CC1` + CNC(=O)c1ccc(Nc2nc(OC3CCCC3)c3c(-c4ccc5nc(C)oc5c4)c[nH]c3n2)c(OC)c1, the IC50 (second compound 0.0316 µM) was > 10 µM, the IC50 (second compound 0.1 µM) was > 10 µM and the IC50 (second compound 0.316 µM) was < 0.0316 µM. For the same compound, the IC50 (second compound 1 µM) was < 0.0316 µM, the IC50 (second compound 3.16 µM) was < 0.0316 µM and the IC50 (second compound 10 µM) was < 0.0316 µM. It also gave a viability, T/C [1] of 94.7%, a viability, T/C [2] of 107% and a viability, T/C [3] of 98.4%. It also gave a viability, T/C [4] of 104%, a viability, T/C [5] of 94.6% and a viability, T/C [6] of 75.9%. The viability, T/C [7] was 101%, the viability, T/C [8] was 105% and the viability, T/C [9] was 95.8%. It also gave a viability, T/C [10] of 101%, a viability, T/C [11] of 92.8% and a viability, T/C [12] of 77.4%. For the same compound, the viability, T/C [13] was 39.6%, the viability, T/C [14] was 52.1% and the viability, T/C [15] was 40.9%. For the same compound, the viability, T/C [16] was 51.4%, the viability, T/C [17] was 47.8% and the viability, T/C [18] was 40.3%. For the same compound, the viability, T/C [19] was 36.5%, the viability, T/C [20] was 33.9% and the viability, T/C [21] was 31.4%. For the same compound, the viability, T/C [22] was 33.3%, the viability, T/C [23] was 29.9% and the viability, T/C [24] was 24.3%. It also gave a viability, T/C [25] of 32.3%, a viability, T/C [26] of 33.2% and a viability, T/C [27] of 35.1%. The viability, T/C [28] was 32%, the viability, T/C [29] was 29.4% and the viability, T/C [30] was 22.5%. The viability, T/C [31] was 26.3%, the viability, T/C [32] was 33.6% and the viability, T/C [33] was 30.4%. The viability, T/C [34] was 29.4%, the viability, T/C [35] was 28.2% and the viability, T/C [36] was 23.8%.
